Entries after “also recorded” stand apart in the source; their conditions may differ.
How the values were obtained:
[1] = ITC sterol binding, POPC LUVs containing 10% ergosterol
Protocol: (§1) Isothermal Titration calorimetry (ITC)
(§2) In an optimized isothermal titration calorimetry (ITC)-based assay, an aqueous solution of AmB was titrated with a suspension of large unilamellar vesicles (LUVs) comprised of only 1-palmitoyl-2-oleoyl-sn-glycero-3-phosphocholine (POPC), and the net exotherm was recorded. The titration was repeated using POPC LUVs containing 10% ergosterol. […] The titration was repeated using C2′epiAmB. […] The ITC assay was also conducted with cholesterol in place of ergosterol.
Experiments were performed using a NanoITC isothermal titration calorimeter (TA Instruments, Wilmington, Del.). Solutions of the compounds to be tested were prepared by diluting a 60.0 mM stock solution of the compound in DMSO to 600 μM with K buffer (5.0 mM HEPES/KHEPES, pH=7.4). The final DMSO concentration in the solution was 1% v/v. Large unilamellar vesicles comprised of only 1-palmitoyl-2-oleoyl-sn-glycero-3-phosphocholine (POPC LUVs) were prepared and phosphorus and ergosterol content was quantified as described below. The LUV solutions were diluted with buffer and DMSO to give a final phospholipid concentration of 12.0 mM in a 1% DMSO/K buffer solution. Immediately prior to use, all solutions were incubated at 37° C. for 30 minutes and degassed under vacuum at 37° C. for 10 minutes. The reference cell of the instrument (volume=0.190 mL) was filled with a solution of 1% v/v DMSO/K buffer.
Palmitoyl oleoyl phosphatidylcholine (POPC) was obtained as a 20 mg/mL solution in CHCl3 from Avanti Polar Lipids (Alabaster, Ala.) and was stored at −20° C. under an atmosphere of dry argon and used within 1 month. […]
Ergosterol content was determined spectrophotometrically. […] The solutions were then analyzed by UV/Vis spectroscopy and the concentration of ergosterol in solution was determined by the extinction coefficient of 10400 L mol^−1 cm^−1 at the UVmax of 282 nm and was compared to the concentration of phosphorus to determine the percent sterol content. The extinction coefficient was determined independently in the above ternary solvent system. […]

[2] = ITC titration with sterol-free POPC LUVs; format: binding; details: no sterol LUVs, 600 μM compound
Protocol: as §1, §2
Experiments were performed using a NanoITC isothermal titration calorimeter (TA Instruments, Wilmington, Del.). Solutions of the compounds to be tested were prepared by diluting a 60.0 mM stock solution of the compound in DMSO to 600 μM with K buffer (5.0 mM HEPES/KHEPES, pH=7.4). The final DMSO concentration in the solution was 1% v/v. Large unilamellar vesicles comprised of only 1-palmitoyl-2-oleoyl-sn-glycero-3-phosphocholine (POPC LUVs) were prepared and phosphorus and ergosterol content was quantified as described below. […]
NanoAnalyze software (TA Instruments) was used for baseline determination and integration of the injection heats, and Microsoft Excel was used for subtraction of dilution heats and the calculation of overall heat evolved. […] By this method, the overall heat evolved during the experiment was calculated using the following formula: […]

## C[C@@H]1[C@H](O)[C@@H](C)/C=C/C=C/C=C/C=C/C=C/C=C/C=C/[C@H](O[C@@H]2O[C@H](C)[C@@H](O)[C@H](N)[C@H]2O)CC2O[C@](O)(C[C@@H](O)C[C@@H](O)[C@H](O)CC[C@@H](O)C[C@@H](O)CC(=O)O[C@H]1C)C[C@H](O)[C@H]2C(=O)O [C2′epiAmB]
[1]; 10% ergosterol LUVs, 600 μM compound
  Total exotherm: -15.24 ± 1.66 µcal
[1]; net exotherm vs sterol-free LUVs
  Binding to ergosterol (in words): binds to ergosterol; also recorded: retained capacity for the epimeric derivative to bind ergosterol
[2]
  Total exotherm: -6.70 ± 0.11 µcal

From US9738677B2, “Amphotericin B derivative with reduced toxicity” (priority 2014, dated 2017)
